# Test results taken from patent publication US12173026B2, “PRMT5 inhibitors” (Merck Sharp & Dohme LLC, priority 2018, dated 2024).
# System: symmetric dimethylation of arginine (SDMA) of PRMT5 substrates in MCF-7 cells
# Test: PRMT5 Cell Target Engagement (TE) Assay
# Type: cell-based
# Conditions: Homo sapiens, MCF7, 72 h; MCF-7 cells treated for 3 days; nuclear SDMA by high content imaging; top concentration 10000 nM
# From the text: PRMT5 Cell Target Engagement (TE) Assay
# The PRMT5 TE assay is a biomarker assay for identifying compounds that inhibit symmetric dimethylation of arginine (SDMA) of PRMT5 substrates. The following substrates have been reported for PRMT5: Histone H2A and H4 R3, Histone H3 R2, Histone 1-13 R8, spliceosome Sm proteins, ribosomal protein RPS10, p53, FEN1, nucleoplasmin, nucleolin, EGFR and EBNA. The assay will focus on detecting symnetrically dimethylated nuclear proteins using high content imaging technology. Detection of the expression of symmetrically dimethylated nuclear proteins is through a mixture of primary rabbit monoclonal antibodies to SDMA (CST 13222) which in turn recognized by an Alexafluor 488 dye-conjugated anti-rabbit IgG secondary antibody. The IN Cell Analyzer 2200 or Opera-Phenix measures nuclear Alexafluor 488 fluorescent dye intensity that is directly related to the level of expression of symmetrically dimethylated nuclear proteins at the single cell level. Nuclear AF488 dye intensities are compared to the mean value for DMSO treated cells (MIN) to report percent of inhibition for each compound-treated well.
# In this assay, the cell potency (EC50) of each compound was determined from a ten point (1:3 serial dilution; top compound concentration of 10000 nM) titration curve using the following outlined procedure. Each well of a BD falcon collagen coated black/clear bottom 384-well plate was seeded with 4000 MCF-7 cells in 30 pal media and allowed to attach for 5 hours. Media is ATCC-formulated Eagle's Minimum Essential Medium, Catalog No. 30-2003. The following components were added to the base medium: 0.01 mg/mL human recombinant insulin; fetal bovine serum to a final concentration of 10%. Additional 30 pal of media containing 2× compounds were added to each well. Cells were treated for 3 days in 37° C. CO2 incubator. On day 3, cells were fixed with Cytofix, permeabilized with 0.4% Triton-X-100/Cytofix, and washed with D-PBS without Ca/Mg. Cells were blocked with Licor Odessey blocking reagent for 1 hour at room temperature, followed by incubation with anti-SDMA (1:1000) antibody at 4° C. overnight. 1° antibody was removed, followed by three washings with DPBS without Ca/Mg and 0.05% Tween20. Hoechst (5 μg/mL), Cell Mask deep stain (1:2000) and Alexa488-conjugated goat anti-rabbit IgG (2 μg/mL) was added for 1 hour at room temperature. A final washing step (three washes) was performed before sealing plate for imaging on in Cell Analyzer 2200 or Opera-Phenix. Images from analyzer were uploaded to Columbus for image analysis. IC50 values were determined by 4 parameters robust fit of percent fluorescence units vs. (Log 10) compound concentrations.
row,Structure (SMILES),EC50 [nM]
1,"Nc1nc2cc(C[C@@H]3CC[C@@]4(O)[C@@H]3O[C@@H](n3ccc5c(N)nc(F)nc53)[C@@H]4O)ccc2cc1F [Example 45, (2R,3R,3aS,6S,6aR)-2(4-amino-2-fluoro-7H-pyrrolo[2,3-d]pyrimidin-7-yl)-6-((2-amino-3-fluoroquinolin-7-yl)methyl)hexahydro-3aH-cyclopenta[b]furan-3,3a-diol]",1.2
2,"Nc1nc2cc(C[C@@H]3CC[C@@]4(O)[C@@H]3O[C@@H](n3ccc5c(N)nc(Cl)nc53)[C@@H]4O)ccc2cc1Cl [Example 47, (2R,3R,3aS,6S,6aR)-2-(4-amino-2-chloro-7H-pyrrolo[2,3-d]pyrimidin-7-yl)-6-[(2-amino-3-chloroquinolin-7-yl)methyl]hexahydro-3aH-cyclopenta[b]furan-3,3a-diol]",1.4
3,"Nc1nc2cc(C[C@@H]3CC[C@@]4(O)[C@@H]3O[C@@H](n3ccc5c(N)nc(Cl)nc53)[C@@H]4O)ccc2cc1F [Example 48, (2R,3R,3aS,6S,6aR)-2-(4-amino-2-chloro-7H-pyrrolo[2,3-d]pyrimidin-7-yl)-6-[(2-amino-3-fluoroquinolin-7-yl)methyl]hexahydro-3aH-cyclopenta[b]furan-3,3a-diol]",1.7
4,"Nc1nc2cc(O[C@H]3CC[C@@]4(O)[C@@H]3O[C@@H](n3cc(-c5ccccc5)c5c(N)ncnc53)[C@@H]4O)ccc2cc1Br [Example 49, (2R,3R,3aS,6S,6aR)-6-[(2-amino-3-bromoquinolin-7-yl)oxy]-2-(4-amino-5-phenyl-7H-pyrrolo[2,3-d]pyrimidin-7-yl)hexahydro-3aH-cyclcopenta[b]furan-3,3a-diol]",13
5,"Nc1nc2cc(C[C@@H]3CC[C@@]4(O)[C@@H]3O[C@@H](n3cc(C(F)F)c5c(N)ncnc53)[C@@H]4O)ccc2cc1F [Example 51, (2R,3R,3aS,6S,6aR)-2-[4-amino-5-(difluoromethyl)-7H-pyrrolo[2,3-d]pyrimidin-7-yl]-6-[(2-amino-3-fluoroquinolin-7-yl)methyl]hexahydro-3aH-cyclopenta[b]furan-3,3a-diol]",2.8
6,"Nc1nc2cc(O[C@H]3CC[C@@]4(O)[C@@H]3O[C@@H](n3cc(C5CC5)c5c(N)ncnc53)[C@@H]4O)ccc2cc1Br [Example 52, (2R,3R,3aS,6S,6aR)-6-[(2-amino-3-bromoquinolin-7-yl)oxy]-2-(4-amino-5-cyclopropyl-7H-pyrrolo[2,3-d]pyrimidin-7-yl)hexahydro-3aH-cyclopenta[b]furan-3,3a-diol]",75.5
7,"Nc1nc2cc(C[C@H]3[C@H]4O[C@@H](n5ccc6c(N)ncnc65)[C@H](O)[C@@]4(O)CC3(F)F)ccc2cc1F [Example 53, (2R,3R,3aS,6S,6aR)-6-[(2-amino-3-fluoroquinolin-7-yl)methyl]-2-(4-amino-7H-pyrrolo[2,3-d]pyrimidin-7-yl)-5,5-difluorohexahdro-3aH-cyclopenta[b]furan-3,3a-diol]",4.5

# Further lines, results first:
row,EC50 [nM],Structure (SMILES)
1,8.1,"Nc1nc2cc(C[C@H]3[C@H]4O[C@@H](n5ccc6c(N)ncnc65)[C@H](O)[C@@]4(O)C[C@@H]3F)ccc2cc1F [Example 54, (2R,3R,3aS,5S,6S,6aR)-6-[(2-amino-3-fluoroquinolin-7-yl)methyl]-2-(4-amino-7H-pyrrolo[2,3-d]pyrimidin-7-yl)-5-fluorohexahydro-3aH-cyclopenta[b]furan-3,3a-diol]"
2,3.9,"Nc1nc2cc(C[C@H]3[C@H]4O[C@@H](n5cc(F)c6c(N)ncnc65)[C@H](O)[C@@]4(O)C[C@@H]3F)ccc2cc1F [Example 55, (2R,3R,3aS,5S,6S,6aR)-2-(4-amino-5-fluoro-7H-pyrrolo[2,3-d]pyrimidin-7-yl)-6-[(2-amino-3-fluoroquinolin-7-yl)methyl]-5-fluorohexahydro-3aH-cyclopenta[b]furan-3,3a-diol,2,2,2-trifluoroethanol]"
3,1.2,"Nc1nc2cc(O[C@H]3CC[C@@]4(O)[C@@H]3O[C@@H](n3cc(F)c5c(N)ncnc53)[C@@H]4O)ccc2cc1Br [Example 56, (2R,3R,3aS,6S,6aR)-6-((2-amino-3-bromoquinolin-7-yl)oxy)-2-(4-amino-5-fluoro-7H-pyrrolo[2,3-d]pyrimidin-7-yl)hexahydro-3aH-cyclopenta[b]furan-3,3a-diol]"
4,2.1,"Nc1ncnc2c1ccn2[C@@H]1O[C@@H]2[C@@H](Oc3ccc4ccc(NCC(F)(F)F)nc4c3)CC[C@]2(O)[C@H]1O [Example 57, (2R,3R,3aS,6S,6aR)-2-(4-amino-7H-pyrrolo[2,3-d]pyrimidin-7-yl)-6-((2-((2,2,2-trifluoroethyl)amino)quinolin-7-yl)oxy)hexahydro-3aH-cyclopenta[b]furan-3,3a-diol]"
5,1,"Nc1ncnc2c1ccn2[C@@H]1O[C@@H]2[C@@H](Oc3ccc4ccc(NCC5CC5)nc4c3)CC[C@]2(O)[C@H]1O [Example 58, (2R,3R,3aS,6S,6aR)-2-(4-amino-7H-pyrrolo[2,3-d]pyrimidin-7-yl)-6-((2-((cyclopropylmethyl)amino)quinolin-7-yl)oxy)hexahydro-3aH-cyclopenta[b]furan-3,3a-diol]"
6,4.6,"Nc1nc2cc(C[C@@H]3CC[C@@]4(O)[C@@H]3O[C@@H](n3cc(F)c5c(N)ncnc53)[C@@H]4O)ccc2cc1F [Example 59, (2R,3R,3aS,6S,6aR)-6-((2-amino-3-fluoroquinolin-7-yl)methyl)-2-(4-amino-5-fluoro-7H-pyrrolo[2,3-d]pyrimidin-7-yl)hexahydro-3aH-cyclopenta[b]furan-3,3a-diol]"
7,1.5,"Cc1cn([C@@H]2O[C@@H]3[C@@H](Oc4ccc5cc(Br)c(N)nc5c4)CC[C@]3(O)[C@H]2O)c2ncnc(N)c12 [Example 60, (2R,3R,3aS,6S,6aR)-6-((2-amino-3-bromoquinolin-7-yl)oxy)-2-(4-amino-5-methyl-7H-pyrrolo[2,3-d]pyrimidin-7-yl)hexahydro-3aH-cyclopenta[b]furan-3,3a-diol]"
8,3.2,"Cc1nc(N)c2ccn([C@@H]3O[C@@H]4[C@H](Cc5ccc6cc(Br)c(N)nc6c5)CC[C@]4(O)[C@H]3O)c2n1 [Example 61, (2R,3R,3aS,6S,6aR)-2-(4-amino-2-methyl-7H-pyrrolo[2,3-d]pyrimidin-7-yl)-6-((2-amino-3 bromoquinolin-7-yl)methyl)hexahydro-3aH-cyclopenta[b]furan-3,3a-diol]"
9,3.7,"Cc1cn([C@@H]2O[C@@H]3[C@H](Cc4ccc5cc(F)c(N)nc5c4)CC[C@]3(O)[C@H]2O)c2ncnc(N)c12 [Example 62, (2R,3R,3aS,6S,6aR)-6-((2-amino-3-fluoroquinolin-7-yl)methyl)-2-(4-amino-5-methyl-7H-pyrrolo[2,3-d]pyrimidin-7-yl)hexahydro-3aH-cyclopenta[b]furan-3,3a-diol 2,2,2-trifluoroacetate]"
10,5.6,"Cc1nc(N)c2ccn([C@@H]3O[C@@H]4[C@@H](Oc5ccc6cc(Br)c(N)nc6c5)CC[C@]4(O)[C@H]3O)c2n1 [Example 63, (2R,3R,3aS,6S,6aR)-2-(4-amino-2-methyl-7H-pyrrolo[2,3-d]pynmidin-7-yl)-6-((2-amino-3-bromoquinolin-7-yl)oxy)hexahydro-3aH-cyclopenta[b]furan-3,3a-diol]"
11,0.9,"Cc1cn([C@@H]2O[C@@H]3[C@H](Cc4ccc5cc(Cl)c(N)nc5c4)CC[C@]3(O)[C@H]2O)c2ncnc(N)c12 [Example 66, (2R,3R,3aS,6S,6aR)-6-((2-amino-3-chloroquinolin-7-yl)methyl)-2-(4-amino-5-methyl-7H-pyrrolo[2,3-d]pyrimidin-7-yl)hexahydro-3aH-cyclopenta[b]furan-3,3a-diol]"
